# According to patent publication US10689331B2, “IDO inhibitors” (Bristol-Myers Squibb Company, priority 2015, dated 2020):
# Molecular target: T1, human IDO1 (Homo sapiens, UniProt P14902)
# T1 construct: expressed in transfected cells
# Experiment: HEK Human IDO-1 inhibition assay (kynurenine readout, Ehrlich reagent, absorbance 490 nm)
# Type: cell-based
# Details: human IDO1/HEK293 cells, incubated 20 hours with compound; 500 nM reference standard = 100% inhibition
# Procedure, shortened: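 HEK293 cells stably expressing human IDO1, treated with compound for 20 h at 37 °C in phenol red-free RPMI/10% FBS. Kynurenine detected after TCA (0.2% final, 50 °C, 30 min) by Ehrlich reagent absorbance at 490 nm; IC50 normalised to 500 nM reference standard (100%) and DMSO (0%).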
# T1 sequence (P14902 whole entry): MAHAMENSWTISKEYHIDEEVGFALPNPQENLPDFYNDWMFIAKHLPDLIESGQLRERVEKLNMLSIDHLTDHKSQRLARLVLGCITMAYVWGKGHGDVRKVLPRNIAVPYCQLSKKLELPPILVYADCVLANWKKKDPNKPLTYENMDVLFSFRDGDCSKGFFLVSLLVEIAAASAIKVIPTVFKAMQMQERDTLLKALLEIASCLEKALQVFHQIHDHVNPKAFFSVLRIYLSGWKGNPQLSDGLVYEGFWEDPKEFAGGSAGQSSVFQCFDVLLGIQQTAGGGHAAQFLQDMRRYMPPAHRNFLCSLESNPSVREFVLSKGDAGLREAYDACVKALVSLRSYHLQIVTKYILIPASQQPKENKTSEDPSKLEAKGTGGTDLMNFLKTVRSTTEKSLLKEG
row,Compound,IC50
1,"CC(C)CN(c1ccc(OCC(=O)O)cc1NC(=O)Nc1ccc(C#N)cc1)C1CCCCC1 [Example 39, 2-(3-(3-(4-cyanophenyl)ureido)-4-(cyclohexyl(isobutyl)amino)phenoxy)acetic acid]",≥ 100 nM
2,"Cc1ccc(N(C)C(=O)Nc2cc(OCC(=O)O)ccc2N(CC(C)C)C2CCCCC2)cc1 [Example 40, 2-(4-(cyclohexyl(isobutyl)amino)-3-(3-methyl-3-(p-tolyl)ureido)phenoxy)acetic acid]",≥ 100 nM
3,"CC(C)CN(c1ccc(OCC(=O)O)cc1NC(=O)N(C)c1ccc(F)cc1)C1CCCCC1 [Example 41, 2-(4-(cyclohexyl(isobutyl)amino)-3-(3-(4-fluorophenyl)-3-methyl-ureido)phenoxy)acetic acid]",≥ 100 nM
4,"CCOC(=O)COc1ccc(N(CC(C)C)C2CCCCC2)c(NC(=O)Nc2ccc(Cl)cc2F)c1 [Example 42, ethyl 2-(3-(3-(4-chloro-2-fluorophenyl)ureido)-4-(cyclohexyl(isobutyl)amino)phenoxy)acetate]",< 5 nM
5,"CC(C)CN(c1ccc(OCC(=O)O)cc1NC(=O)Nc1ccc(C#N)cc1F)C1CCCCC1 [Example 43, 2-(3-(3-(4-cyano-2-fluorophenyl)ureido)-4-(cyclohexyl(isobutyl)amino)phenoxy)acetic acid]",< 5 nM
6,"CC(C)CN(c1ccc(OCC(=O)O)cc1Nc1nc2ccccc2o1)C1CCCCC1 [Example 44, 2-(3-(benzo[d]oxazol-2-ylamino)-4-(cyclohexyl(isobutyl)amino)phenoxy)acetic acid]",≥ 100 nM
7,CC(C)CN(c1ccc(OCC(=O)O)cc1N(C)C(=O)Nc1ccc(Cl)cc1F)C1CCCCC1 [Example 45],≥ 100 nM
8,"CC(C)CN(c1ccc(OCC(=O)NS(=O)(=O)C2CC2)cc1NC(=O)Nc1ccc(Cl)cc1F)C1CCCCC1 [Example 47, 2-(3-(3-(4-chloro-2-fluorophenyl)ureido)-4-(cyclohexyl (isobutyl)amino)phenoxy)-N-(cyclopropyl-sulfonyl)acetamide]",< 5 nM
9,"CC(C)CN(c1ccc(OCC(=O)NS(=O)(=O)C(C)(C)C)cc1NC(=O)Nc1ccc(Cl)cc1F)C1CCCCC1 [Example 48, N-(tert-butylsulfonyl)-2-(3-(3-(4-chloro-2-fluorophenyl)ureido)-4-(cyclohexyl(isobutyl)amino)phenoxy) acetamide]",< 5 nM
10,"Cc1ccc(NC(=O)Nc2cc(OCC(=O)NS(=O)(=O)N(C)C)ccc2N(CC(C)C)C2CCCCC2)cc1 [Example 52, 2-(4-(cyclohexyl(isobutyl)amino)-3-(3-(p-tolyl)ureido)phenoxy)-N—(N,N-dimethylsulfamoyl)acetamide]",< 100 nM
11,"Cc1ccc(NC(=O)Nc2cc(OCC(=O)NS(=O)(=O)C3CC3)ccc2N(CC(C)C)C2CCCCC2)cc1 [Example 53, 2-(4-(cyclohexyl(isobutyl)amino)-3-(3-(p-tolyl)ureido)phenoxy)-N-(cyclopropylsulfonyl)acetamide]",< 100 nM
12,"CC(C)CN(c1ccc(OCC(=O)O)cc1NC(=O)Cc1ccc(Cl)c(F)c1)C1CCCCC1 [Example 54, 2-(3-(2-(4-chloro-3-fluorophenyl)acetamido)-4-(cyclohexyl(isobutyl)amino)phenoxy)acetic acid]",≥ 100 nM
13,"Cc1ccc(CC(=O)Nc2cc(OCC(=O)O)ccc2N(CC(C)C)C2CCCCC2)c(F)c1 [Example 55, 2-(4-(cyclohexyl(isobutyl)amino)-3-(2-(2-fluoro-4-methylphenyl)acetamido)phenoxy)acetic acid]",< 100 nM
14,"CC(C)CN(c1ccc(OCC(=O)O)cc1NC(=O)Cc1ccc(F)cc1)C1CCCCC1 [Example 57, 2-(4-(cyclohexyl(isobutyl)amino)-3-(2-(4-fluorophenyl)acetamido)phenoxy)acetic acid]",≥ 100 nM
15,"CC(C)CN(c1ccc(OC(C)(C)C(=O)O)cc1NC(=O)Nc1ccc(Cl)cc1F)C1CCCCC1 [Example 91, 2-(3-(3-(4-chloro-2-fluorophenyl)ureido)-4-(cyclohexyl(isobutyl)amino)phenoxy)-2-methylpropanoic acid]",< 5 nM
16,"Cc1ccc(NC(=O)Nc2cc(OC(C)(C)C(=O)O)ccc2N(CC(C)C)C2CCCCC2)cc1 [Example 92, 2-(4-(cyclohexyl(isobutyl)amino)-3-(3-(p-tolyl)ureido)phenoxy)-2-methylpropanoic acid]",< 5 nM
17,"CC(C)CN(c1ccc(OC2(C(=O)O)CC2)cc1NC(=O)Nc1ccc(Cl)cc1F)C1CCCCC1 [Example 93, 1-(3-(3-(4-chloro-2-fluorophenyl)ureido)-4-(cyclohexyl(isobutyl)amino)phenoxy)cyclopropanecarboxylic acid]",< 5 nM
18,"Cc1ccc(NC(=O)Nc2cc(OC3(C(=O)O)CC3)ccc2N(CC(C)C)C2CCCCC2)cc1 [Example 94, 1-(4-(cyclohexyl(isobutyl)amino)-3-(3-(p-tolyl)ureido)phenoxy)cyclopropanecarboxylic acid]",< 5 nM
19,"CC(C)CN(c1ccc(OCc2nnn[nH]2)cc1NC(=O)Nc1ccccc1F)C1CCCCC1 [Example 97, 1-(5-((1H-tetrazol-5-yl)methoxy)-2-(cyclohexyl(isobutyl)amino)phenyl)-3-(2-fluorophenyl)urea]",< 5 nM

# Next, values leading:
row,IC50,Compound
1,< 5 nM,"CC(C)CN(c1ccc(OCC(=O)NS(=O)(=O)N(C)C)cc1NC(=O)Nc1ccc(Cl)cc1F)C1CCCCC1 [Example 46, 2-(3-(3-(4-chloro-2-fluorophenyl)ureido)-4-(cyclohexyl(isobutyl)amino)phenoxy)-N—(N,N-dimethylsulfamoyl)acetamide]"
2,< 5 nM,CC(C)CN(c1ccc(OCC(=O)NS(=O)(=O)c2cccs2)cc1NC(=O)Nc1ccc(Cl)cc1F)C1CCCCC1 [Example 49]
3,≥ 100 nM,"Cc1cc(NC(=O)Nc2cc(OCC(=O)NS(=O)(=O)C3CC3)ccc2N(CC(C)C)C2CCCCC2)no1 [Example 50, 2-(4-(cyclohexyl(isobutyl)amino)-3-(3-(5-methyl-isoxazol-3-yl)ureido)phenoxy)-N-(cyclopropylsulfonyl)acetamide]"
4,< 5 nM,"CC(C)CN(c1ccc(OCC(=O)NS(=O)(=O)N(C)C)cc1NC(=O)Nc1ccccc1F)C1CCCCC1 [Example 51, 2-(4-(cyclohexyl(isobutyl)amino)-3-(3-(2-fluoro-phenyl)ureido)phenoxy)-N—(N,N-dimethylsulfamoyl)acetamide]"
5,≥ 100 nM,"CC(C)CN(c1ccc(OCC(=O)O)cc1NC(=O)Cc1ccc(F)cc1F)C1CCCCC1 [Example 56, 2-(4-(cyclohexyl(isobutyl)amino)-3-(2-(2,4-difluorophenyl)acetamido)phenoxy)acetic acid]"
6,< 100 nM,"Cc1ccc(NC(=O)Nc2cc(OCc3nnn[nH]3)c(F)cc2N(CC(C)C)CC(C)C)cc1 [Example 95, 1-(5-((1H-tetrazol-5-yl)methoxy)-2-(diisobutylamino)-4-fluorophenyl)-3-(p-tolyl)urea]"
7,< 5 nM,"CC(C)CN(c1ccc(OCc2nnn[nH]2)cc1NC(=O)Nc1ccc(Cl)cc1F)C1CCCCC1 [Example 96, 1-(5-((1H-tetrazol-5-yl)methoxy)-2-(cyclohexyl(isobutyl)amino)phenyl)-3-(4-chloro-2-fluorophenyl)urea]"
8,< 5 nM,"CC(C)CN(c1ccc(OCC(=O)O)cc1NC(=O)Nc1ccc(Cl)cc1F)C1CCC(F)(F)CC1 [Example 98, 2-(3-(3-(4-Chloro-2-fluorophenyl)ureido)-4-((4,4-difluorocyclohexyl)(isobutyl)amino)-phenoxy)acetic acid]"
